Results from patent US20040214799A1, “Cancerous metastasis inhibitors containing carbacyclic phosphatidic acid derivatives” (priority 2001, published 2004).

Legend:
MM1 cells [1] = assay: Effect on the proliferation of MM1 cells; type: cell-based, rat; conditions: 12.5 μM or 25 μM cPA, 10% FBS, 24 hours and 72 hours
Protocol: 12.5 μM and 25 μM cPA were added to media containing 10% FBS, and then the cells were cultured under conditions of 37° C. and 5% CO2 for 24 hours and 72 hours. The number of the MM1 cells was counted using a hemocytometer.

MM1 cells [2] = conditions: Int. J. Cancer 81, 918-922 (1999), cited from earlier work; for invasion suppressing action on LPA-induced invasion (in words): reported by Mukai et al.; for suppressed LPA-induced invasion by: studied by Mukai et al.
MM1 cells [3] = assay: In vitro invasion assay, LPA-induced invasion of MM1 cells across mesothelial cell monolayer; type: cell-based, rat; conditions: 25 μM cPA derivative, 25 μM LPA, 20 hours
Protocol: (§1) The abdomen of a male DONRYU rat (300 g, NIPPON BIO-SUPP. CENTER) was opened aseptically. The thus obtained mesenterium was treated with 0.25% trypsin at 37° C. for 15 minutes, filtrated with a 150 μm stainless mesh, and then centrifuged to collect mesothelial cells. The cells were cultured under conditions of 37° C. and 5% CO2 in a medium which was obtained by adding 10% FBS to Eagle's MEMI (Nissui) supplemented with Eagle's MEM amino acid vitamin medium (Nissui) in a volume twice as great as that of the MEMI. A mesothelial cell monolayer which had reached a confluent density after 1 week of culturing was used for invasion assay.
(§2) The MM1 cells, which are highly invasive clones of rat ascites hepatoma cells (AH-130), were established by Mukai et al., (Int. J. Cancer : 81, 918-922 (1999)), and was cultured under the same conditions as those for mesothelial cells.
(§3) In vitro invasion assay was developed by Akedo et al (Akedo, H et al., Cancer Res. 46, 2416-2422 (1986)). MM1 cells were multi-layer-cultured on the mesothelial cell layer, which had been grown to reach a confluent density, in the presence of 10% FBS or 25 μM LPA (SIGMA). 25 μM cPA was then added. The cells were cultured under conditions of 37° C. and 5% CO2 for 20 hours, and then fixed with 10% formalin. The number of colonies of MM1 cells that had invaded was counted under a phase-contrast microscope (FIG. 3).
cPA and LPA were ice-cooled in PBS containing 0.1% fatty-acid free BSA (SIGMA), ultrasonicated, emulsified, stored at −20° C., and then used.
0.5 μM, 1 μM and 10 μM carba-cPA were added to MM1 cells, and then in vitro invasion assay was performed similarly to (1-1) in the presence of 25 μM LPA.
The following reagents were respectively added to an in vitro invasion assay system so as to examine their effects on MM1 cell invasion in the presence of 25 μM LPA: Forskolin (Wako) which directly activates adenylate cyclase (cAMP synthase); cholera toxin (CTX) (GIBCO BRL) which prevent the deactivation of G protein (Gs) which activates adenylate cyclase; Bt2cAMP (nacalai tesque) which can pass through the membrane and functions in a manner similar to that of cAMP when it enters the cell; or isobutylmethylxanthine (IBMX, 3-isobutyl-1-methylxanthine) (SIGMA) which inhibits phosphodiesterase (cAMP degrading enzyme).

MM1 cells [4] = assay: In vitro invasion assay, FBS-induced invasion of MM1 cells; type: cell-based, rat; conditions: 25 μM cPA derivative, 10% FBS, 20 hours
Protocol: as §1, §2
as §3, with “3). […]” for “3).”

HT-1080 cells = assay: In vitro invasion assay of HT-1080 cells in the absence of serum/LPA; type: cell-based, human
Protocol: HT-1080 cells were cultured under conditions of 37° C. and 5% CO2 in Eagle's MEMI (Nissui) supplemented with a one-hundredth volume of nonessential amino acid solution (GIBCO BRL) and 10% FBS. […] 4 hours later, the cells were fixed, and then the cells that had invaded were counted.

MM1 cells [5] = assay: Measurement of intracellular cAMP in MM1 cells; type: cell-based, rat; conditions: 25 μM cPA or 10 μM Forskolin, pretreated with 1 mM IBMX
Protocol: After a certain time period, 10% ice-cooled TCA was added to stop the reaction. The centrifuged supernatant was washed 4 times with water-saturated diethylether to remove TCA, and then placed under nitrogen gas flow at 60° C. to remove the solvent completely. cAMP in the resultant sample was measured using a cyclic AMP [^3H] assay system (Amersham).

Compound	effect on MM1 cell proliferation (in words) (MM1 cells [1])	suppressed LPA-induced invasion by (MM1 cells [2])	also measured
CCCCCC/C=C\CCCCCCCC(=O)OCC1COP(=O)([O-])O1.[Na+] (stereo not shown) [ΔPal-cPA]	proliferation suppressing activity	around 50%	invasion suppressing action on LPA-induced invasion (in words) (MM1 cells [2]): weak
CCC=CCC=CCC=CCC=CCC=CCCCC(=O)OCC1COP(=O)(O)O1 (stereo not shown) [cPA-12]			suppression of LPA-induced invasion (in words) (MM1 cells [3]): not suppressed; suppression of FBS-induced invasion (MM1 cells [4]): approximately 70%
CCCCCCCC/C=C\CCCCCCCC(=O)OC[C@@H]1COP(=O)(O)O1 [Ole-cPA]	proliferation suppressing activity	approximately 60%	invasion suppressing action on LPA-induced invasion (in words) (MM1 cells [2]): weak
CCCCCCCCCCCC(=O)OCC1COP(=O)([O-])O1.[Na+] (stereo not shown) [Lau-cPA]		around 50%	
carba-Pal-cPA [cPA-18]	no effect on MM1 cell proliferation		invasion suppressing activity on HT-1080 cells (in words) (HT-1080 cells; 10 μM cPA, absence of serum/LPA, 4 hours): invasion suppressing activity on the cells at the same strength as or a level stronger than that exhibited by natural cPA; change of intracellular cAMP concentration (in words) (MM1 cells [5]; listed as Carba-Pal-cPA): a similar result was obtained; change of intracellular cAMP concentration (in words) (MM1 cells [5]; listed as carba-Pal-cPA): the change of cAMP concentration was not observed
lysophosphatidic acid [LPA, reference compound]			promotion of HT-1080 cell invasion (in words) (HT-1080 cells; 25 μM LPA added): the invasion was no longer promoted
CCCCCC[C@@H]1C[C@@H]1CCCCCCCC(=O)OC[C@@H]1COP(=O)(O)O1 [PHYLPA]		around 50%	
CCCCCCCCCCCCCCCCCCCC(=O)OCC1COP(=O)([O-])O1.[Na+] (stereo not shown) [Ara-cPA]		around 50%	
